In ChEMBL document CHEMBL1134401, “Property-based design: optimization of drug absorption and pharmacokinetics” (J Med Chem, 2001):

Legend:
[1] = Half life was measured as time taken to decrease half of its initial concentration
[2] = Volume of distribution of the compound; details: in vivo
[3] = Plasma clearance of the compound
[4] = Partition coefficient (logD); details: octanol/water

Row | SMILES | half-life [1] [h] | Vd [2] [L/kg] | clearance [3] [mL/min/kg] | logD [4]
1 | CO[C@H]1/C=C/O[C@@]2(C)Oc3c(C)c(O)c4c(O)c(cc(O)c4c3C2=O)NC(=O)/C(C)=C\C=C\[C@H](C)[C@H](O)[C@@H](C)[C@@H](O)[C@@H](C)[C@H](OC(C)=O)[C@@H]1C [RIFAMYCIN] | 0.33 | 1.2 | 80 | 
2 | CCOC(=O)C1=C(COCCN)NC(C)=C(C(=O)OC)C1c1ccccc1Cl (stereo unspecified) [AMLODIPINE] |  |  |  | 1.8
3 | COC(=O)C1=C(C)NC(C)=C(C(=O)OC)C1c1ccccc1[N+](=O)[O-] [NIFEDIPINE] | 1.9 | 1 |  | 
4 | CO[C@H]1/C=C/O[C@@]2(C)Oc3c(C)c(O)c4c(c3C2=O)C2=NC3(CCN(CC(C)C)CC3)NC2=C(NC(=O)/C(C)=C\C=C\[C@H](C)[C@H](O)[C@@H](C)[C@@H](O)[C@@H](C)[C@H](OC(C)=O)[C@@H]1C)C4=O [RIFABUTIN] | 45 | 266 | 80 | 

Further lines, results first:

Row | half-life [1] [h] | Vd [2] [L/kg] | clearance [3] [mL/min/kg] | logD [4] | SMILES
5 |  |  |  | 4.8 | CCOC(=O)C1=C(C)NC(C)=C(C(=O)OC)C1c1cccc(Cl)c1Cl (stereo unspecified) [FELODIPINE]
6 | 4 | 3.8 | 21 | 4.2 | CCOC(=O)C1=C(C)NC(C)=C(C(=O)OC)C1c1cccc([N+](=O)[O-])c1 (stereo unspecified) [NITRENDIPINE]
7 |  | 8.8 | 32 |  | CO[C@H]1/C=C/O[C@@]2(C)Oc3c(C)c(O)c4c(O)c(c(/C=N/N5CCN(C)CC5)c(O)c4c3C2=O)NC(=O)/C(C)=C\C=C\[C@H](C)[C@H](O)[C@@H](C)[C@@H](O)[C@@H](C)[C@H](OC(C)=O)[C@@H]1C [RIFAMPIN]
